# Results from ChEMBL document CHEMBL4811321, “Synthesis and biological evaluation of 3,4-dihydro-1H-[1,4] oxazepino [6,5,4-hi] indol-1-ones and 4,6-dihydrooxepino [5,4,3-cd] indol-1(3H)-ones as Mycobacterium tuberculosis inhibitors” (Bioorg Med Chem, 2021).
# Biological target: not listed separately
# Test: Displacement of UDP-fluorescein from Mycobacterium tuberculosis UDP-galactopyranose mutase by fluorescence polarization assay
# Conditions: not given
row,SMILES,Kd [µM]
1,COc1ccc(C#C/C=C2\Cn3cc(I)c4cccc(c43)C(=O)O2)cc1,72.9
2,O=C1O/C(=C/I)Cn2cc(I)c3cccc1c32,138

# System: Mycobacterium tuberculosis
# Test: Antitubercular activity against Mycobacterium tuberculosis mc2 6230 assessed as inhibition of bacterial growth incubated for 7 days by microtiter plate assay
# Type: functional
# Conditions: mc2 6230, 168 h, time 7 day
row,SMILES,MIC [µg/mL]
1,COc1ccccc1SCC1Cc2cn(Cc3ccccc3)c3cccc(c23)C(=O)O1 (stereo not given),> 100
2,COc1ccc(C#C/C=C2\Cn3cc(I)c4cccc(c43)C(=O)O2)cc1,0.2
3,O=C1OC(CI)Cc2cn(Cc3ccccc3)c3cccc1c23 (stereo not given),12.5
4,O=C1OC(CSc2ccccc2)Cc2cn(Cc3ccccc3)c3cccc1c23 (stereo not given),> 100
5,O=C1O/C(=C/C#Cc2ccccc2)Cn2cc(I)c3cccc1c32,0.4
6,O=C1OC(Cn2cc(-c3ccc(F)cc3F)nn2)Cc2cn(Cc3ccccc3)c3cccc1c23 (stereo not given),> 100
7,CCCCC#C/C=C1\Cn2cc(I)c3cccc(c32)C(=O)O1,0.4
8,CCOC(=O)CCCc1cn(CC2Cc3cn(Cc4ccccc4)c4cccc(c34)C(=O)O2)nn1 (stereo not given),> 100
9,O=C1OC(Cn2cc(CCBr)nn2)Cc2cn(Cc3ccccc3)c3cccc1c23 (stereo not given),25
10,COc1ccc(-c2cn(CC3Cc4cn(Cc5ccccc5)c5cccc(c45)C(=O)O3)nn2)cc1 (stereo not given),> 100
11,COc1ccc(/C=C2\Cn3cc(I)c4cccc(c43)C(=O)O2)cc1,> 100
12,O=C1OC(Cn2cc(-c3ccccc3F)nn2)Cc2cn(Cc3ccccc3)c3cccc1c23 (stereo not given),> 100
13,O=C1OC(Cn2cc(-c3ccccc3)nn2)Cc2cn(Cc3ccccc3)c3cccc1c23 (stereo not given),> 100
14,COc1cccc(SCC2Cc3cn(Cc4ccccc4)c4cccc(c34)C(=O)O2)c1 (stereo not given),> 100
15,CCCCCCCc1cn(CC2Cc3cn(Cc4ccccc4)c4cccc(c34)C(=O)O2)nn1 (stereo not given),> 100
16,CC(C)CCc1cn(CC2Cc3cn(Cc4ccccc4)c4cccc(c34)C(=O)O2)nn1 (stereo not given),> 100
17,CCOC(=O)CCCC#C/C=C1\Cn2cc(I)c3cccc(c32)C(=O)O1,0.4
18,CCCCc1cn(CC2Cc3cn(Cc4ccccc4)c4cccc(c34)C(=O)O2)nn1 (stereo not given),> 100
19,COc1ccccc1-c1cn(CC2Cc3cn(Cc4ccccc4)c4cccc(c34)C(=O)O2)nn1 (stereo not given),> 100
20,O=C1OC(Cn2cc(C3CC3)nn2)Cc2cn(Cc3ccccc3)c3cccc1c23 (stereo not given),> 100
21,CC(C)CCC#C/C=C1\Cn2cc(I)c3cccc(c32)C(=O)O1,0.2
22,CN(Cc1cn(CC2Cc3cn(Cc4ccccc4)c4cccc(c34)C(=O)O2)nn1)S(C)(=O)=O (stereo not given),> 100
23,O=C1O/C(=C/I)Cn2cc(I)c3cccc1c32,1.6
